In patent US20180200331A1, “BST-2 AS A THERAPEUTIC TARGET AND DIAGNOSTIC MARKER FOR BREAST CANCER GROWTH AND METASTASIS” (University of Iowa Research Foundation, priority 2015, published 2018):

What was measured:
4T1 cells [1] = assay: Orthotopic implantation of 4T1 cells in BALB/c mice; type: in vivo
Experimental: (§1) Five-week-old C57BL/6NCr and BALB/cAnNCr female mice were used. Mice were sacrificed when they became moribund. Tumor volume (TV) was calculated as: TV=0.5(length*width2). Tumor latency was calculated as the number of tumor-free injected mice/number of injected mice×100. To assess morbidity, the following clinical score ranking was used: (0) no abnormal clinical signs, (1) ruffled fur but lively, (2) ruffled fur, activity level slowing, sick, (3) ruffled fur, eyes squeezed shut, hunched, hardly moving, very sick, (4) moribund and (5) dead. Experiments involving mice were approved by the University of Iowa Animal Care and Use Committee (IACUC).
(§2) Prior to imaging, mice were anesthetized, weighed and injected intraperitoneally with D-luciferin. Mice were imaged using the Xenogen IVIS three dimensional optical imaging system (Caliper Life Sciences, Hopkinton, Mass., USA). Luciferase was quantified with Living Image Software (Caliper Life Sciences).

E0771 cells [2] = assay: Orthotopic implantation of E0771 cells in C57BL/6 mice; type: in vivo
Experimental: as §1, §2

4T1 cells [3] = assay: Collagen and fibronectin adhesion assay; type: cell-based, mouse; conditions: pre-coated plates, 4 hours
Experimental: Ninety-six-well plates were coated with 50 μg/ml of collagen or fibronectin. Plates were incubated at 37° C. for 2 hours. Nonspecific sites were blocked with 40 μl of 2 mg/ml bovine serum albumin (BSA) in PBS. Wells were washed once with PBS. Cancer cells were labeled with PKH67 Green fluorescent cell linker, following the manufacturer's instructions (Sigma-Aldrich). Labelled cells were added to pre-coated wells (20,000 cells/well) and allowed to adhere for 4 hours. Non-adhered cells were washed off with PBS and plates were read at 485 nm/535 nm (excitation/emission) wavelengths using a Tecan Infinite M200 Pro plate reader (Tecan, Maennedorf, Switzerland). Values are represented as relative fluorescence unit.

mammary cancer cells [4] = assay: Transformation assay (soft agar colony formation); type: cell-based, mouse; conditions: compared to shControl
Experimental: Agar was mixed in Roswell Park Memorial Institute medium (RPMI) with 20% FBS. A total of 500 μl of 0.5% agar was added to 24-well plate and allowed to solidify. Cells were plated at 1,250 cells/well in 500 μl of 0.35% agarose. Some 250 μl of the appropriate growth medium was added on top of the agarose layer. Growth medium was replaced twice a week. Colonies were stained with crystal violet and imaged. Colonies from five different fields were counted and averaged.

mammary cancer cells [5] = assay: Scratch assay; type: cell-based, mouse; conditions: 6 h and 24 h
Experimental: Confluent monolayers of cancer cells plated in 12-well plates were scratched using a pipette tip. Fresh medium was added to the wells. Cells were allowed to migrate for 0, 6 or 24 hours before fixation (4% paraformaldehyde (PFA) for 45 minutes). Fixed cells were washed (1×PBS) and imaged with a Nikon Eclipse Ti microscope adjusted with a Nikon digital sight camera (Nikon, Tokyo, Japan). Images were processed and migrated cells counted using Image J software.

E0771 cells [6] = assay: Boyden chamber assay; type: cell-based, mouse; conditions: 20 hours
Experimental: The apical chamber of 24-well cell culture inserts (Merck Millipore, Billerica, Mass., USA) were seeded with previously starved sh137, sh413 or shControl transduced E0771 cells (150,000) in serum-free medium. Culture medium containing 30% FBS was added to the basal chamber of the unit and cells were allowed to migrate through the membranous barrier for 20 hours at 37° C. Non-migrated cells were washed off, migrated cells were fixed with 4% PFA for 5 minutes, washed twice with 1×PBS, permeabilized with 100% methanol for 25 minutes, labeled with Giemsa stain (for 15 minutes at room temperature) and imaged using a Nikon Eclipse Ti microscope adjusted with an X-cite series 120 LED fluorescence microscope light source and a Nikon digital sight camera. Images were processed using Image J software. Cells from five different fields were counted and averaged.

E0771 or 4T1 cells = assay: Cell invasion assay (Matrigel); type: cell-based, mouse; conditions: 24 h
Experimental: The apical chamber of 24-well cell culture inserts (Merck Millipore) were coated with 3 mg/ml of Matrigel (100 μl) (Sigma-Aldrich) and allowed to solidify for 5 hours. A total of 100,000 sh413- or shControl-transduced E0771 or 4T1 cells in serum-free medium were plated on top of the Matrigel layer. Culture medium containing 10% FBS and 5 μg/ml fibronectin (adhesive substrate) (Sigma-Aldrich) was added to the basal chamber of the unit (600 μl) and cells were allowed to invade through the membranous barrier for 24 hours at 37° C. Noninvasive cells were washed off; invasive cells were fixed with 4% PFA, permeabilized with 100% methanol, labeled with Giemsa stain and imaged as described in the previous paragraph. Images were processed using Image J software. Cells from five different fields were counted and averaged.

E0771 and 4T1 cells = assay: BrdU assay; type: cell-based, mouse
Experimental: A total of 5,000 cells were plated in 96-well plates for 24 hours. Bromodeoxyuridine or 5-bromo-2′-deoxyuridine (BrdU) (Calbiochem, Billerica, Mass., USA) assay was carried out according to the manufacturer's instructions. Absorbance at 450 nm was read using a Tecan Infinite plate reader. In parallel, 150,000 cells were plated in 24-well plates for 24 hours. Cells were incubated with BrdU label (1:2000) for 20 hours, treated with a fixative/denaturing solution (30 minutes) and incubated with an anti-BrdU antibody (1:1000) and rat anti-mouse BST-2 antibody (1:200, eBioscience) for 1 hour at room temperature. Cells were washed and incubated with Alexa Fluor 594 anti-rat (Invitrogen, Waltham, Mass., USA) and Alexa Fluor 488 anti-mouse (Invitrogen) secondary antibodies for 30 minutes at room temperature. Cells were stained with 4′,6-diamidino-2-phenylindole (DAPI)-containing Vectashield (Vector Laboratories, Burlingame, Calif., USA) and imaged using a Zeiss 710 confocal microscope (Carl Zeiss, Oberkochen, Germany). Images were processed using Image J software. BrdU label, fixative/denaturing solution, and anti-BrdU antibody were from BrdU (Calbiochem) assay.

E0771 cells [7] = assay: MTT assay, E0771; type: cell-based, mouse
Experimental: A total of 5,000 cells stably expressing sh137, sh413, or shControl were plated in 96-well plates. Cells were then incubated with 5 mg/ml MTT reagent for 3.5 hours followed by addition of MTT solvent (0.1% NP-40 and 4 mM HCl in isopropanol) and rocking for 15 minutes. Absorbance at 590 nm was read using a Tecan Infinite M200 Pro plate reader.

“sh413: BST-2-targeting shRNA (SEQ ID NO:4), delivered by lentiviral particles (CCGGGCTTGAGAATGAAGTCACGAACTCGAGTTCGTGACTTCATTCTCAAGCTTTTTG)” was tested, and the “median overall survival (OS)” value (4T1 cells [1]; Kaplan-Meier) was “undefined”, the “survival area under the curve (AUC)” value (4T1 cells [1]; Kaplan-Meier) was 3,900 and the “number of tumors in intestine and mesentery” value (4T1 cells [1]; average of all mice) was “six”. For the same substance, the mammary tumor latency (4T1 cells [1]; compared to shControl cells) was “increased mammary tumor latency”, the “tumor volume over time” value (4T1 cells [1]; compared to shControl tumors) was “significantly lower” and the “mice survived to end of experiment” value (4T1 cells [1]; day 45) was 14 out of 15. For the same substance, the “incidence of metastases to the liver” value (4T1 cells [1]; mouse, in vivo) was 46%, the “incidence of metastases to the lung” value (4T1 cells [1]; mouse, in vivo) was 40% and the “mice spared of ascites and splenomegaly” value (4T1 cells [1]; mouse, in vivo) was 14 out of 15. For the same substance, the average tumor mass (4T1 cells [1]; n=15, at necropsy) was 0.37 g, the “median overall survival (OS)” value (E0771 cells [2]; Kaplan-Meier) was 23 days and the “survival area under the curve (AUC)” value (E0771 cells [2]; Kaplan-Meier) was 2,679. The malignant ascites (E0771 cells [2]; n=10) was “prevented the development of malignant ascites”, the adhesion to collagen (4T1 cells [3]) was “reduced adhesive capability” and the adhesion to fibronectin (4T1 cells [3]) was “reduced adhesive capability”. For the same substance, the “colony numbers in soft agar” value (mammary cancer cells [4]) was “reduced colony numbers”, the “migration into scratch wound” value (mammary cancer cells [5]) was “lost the ability to migrate” and the “rate of cell migration (Boyden chamber)” value (E0771 cells [6]) was “significantly reduced rate of cell migration”. For the same substance, the “invasion through Matrigel” value (E0771 or 4T1 cells) was “reduced the ability of the cells to invade the basement membrane”, the “cell proliferation (BrdU incorporation)” value (E0771 and 4T1 cells) was “no effect on cell proliferation” and the “cell viability (MTT)” value (E0771 cells [7]) was “equally viable”.
